In patent US9586951B2 (FUJIFILM Corporation, priority 2013, dated 2017):
pIC50: −log10 of the molar value.

Target: T1, ATM (Homo sapiens, UniProt Q13315)
T1 construct: detecting phosphorylation of Chk2 in a human non-small cell lung cancer cell line NCI-H460 (ATCC company); host or cells: NCI-H460 human non-small cell lung cancer cells
Assay: ATM inhibition test (phosphorylation of Chk2 generated by ionizing radiation, AlphaScreen SureFire)
Assay type: cell-based
Settings: phosphorylated Chk2 in NCI-H460 cells, ionizing radiation 8Gy, 1 hour after test compound treatment; read-out: ATM inhibitory activity
In short: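 Phosphorylated Chk2 read by AlphaScreen SureFire in human non-small cell lung cancer NCI-H460 cells, 1 hour after 8Gy ionizing radiation at 37° C. Compound added 1 hour before irradiation. Percent inhibition normalised between irradiated and non-irradiated drug-untreated signals.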

T1 sequence (Q13315 whole entry): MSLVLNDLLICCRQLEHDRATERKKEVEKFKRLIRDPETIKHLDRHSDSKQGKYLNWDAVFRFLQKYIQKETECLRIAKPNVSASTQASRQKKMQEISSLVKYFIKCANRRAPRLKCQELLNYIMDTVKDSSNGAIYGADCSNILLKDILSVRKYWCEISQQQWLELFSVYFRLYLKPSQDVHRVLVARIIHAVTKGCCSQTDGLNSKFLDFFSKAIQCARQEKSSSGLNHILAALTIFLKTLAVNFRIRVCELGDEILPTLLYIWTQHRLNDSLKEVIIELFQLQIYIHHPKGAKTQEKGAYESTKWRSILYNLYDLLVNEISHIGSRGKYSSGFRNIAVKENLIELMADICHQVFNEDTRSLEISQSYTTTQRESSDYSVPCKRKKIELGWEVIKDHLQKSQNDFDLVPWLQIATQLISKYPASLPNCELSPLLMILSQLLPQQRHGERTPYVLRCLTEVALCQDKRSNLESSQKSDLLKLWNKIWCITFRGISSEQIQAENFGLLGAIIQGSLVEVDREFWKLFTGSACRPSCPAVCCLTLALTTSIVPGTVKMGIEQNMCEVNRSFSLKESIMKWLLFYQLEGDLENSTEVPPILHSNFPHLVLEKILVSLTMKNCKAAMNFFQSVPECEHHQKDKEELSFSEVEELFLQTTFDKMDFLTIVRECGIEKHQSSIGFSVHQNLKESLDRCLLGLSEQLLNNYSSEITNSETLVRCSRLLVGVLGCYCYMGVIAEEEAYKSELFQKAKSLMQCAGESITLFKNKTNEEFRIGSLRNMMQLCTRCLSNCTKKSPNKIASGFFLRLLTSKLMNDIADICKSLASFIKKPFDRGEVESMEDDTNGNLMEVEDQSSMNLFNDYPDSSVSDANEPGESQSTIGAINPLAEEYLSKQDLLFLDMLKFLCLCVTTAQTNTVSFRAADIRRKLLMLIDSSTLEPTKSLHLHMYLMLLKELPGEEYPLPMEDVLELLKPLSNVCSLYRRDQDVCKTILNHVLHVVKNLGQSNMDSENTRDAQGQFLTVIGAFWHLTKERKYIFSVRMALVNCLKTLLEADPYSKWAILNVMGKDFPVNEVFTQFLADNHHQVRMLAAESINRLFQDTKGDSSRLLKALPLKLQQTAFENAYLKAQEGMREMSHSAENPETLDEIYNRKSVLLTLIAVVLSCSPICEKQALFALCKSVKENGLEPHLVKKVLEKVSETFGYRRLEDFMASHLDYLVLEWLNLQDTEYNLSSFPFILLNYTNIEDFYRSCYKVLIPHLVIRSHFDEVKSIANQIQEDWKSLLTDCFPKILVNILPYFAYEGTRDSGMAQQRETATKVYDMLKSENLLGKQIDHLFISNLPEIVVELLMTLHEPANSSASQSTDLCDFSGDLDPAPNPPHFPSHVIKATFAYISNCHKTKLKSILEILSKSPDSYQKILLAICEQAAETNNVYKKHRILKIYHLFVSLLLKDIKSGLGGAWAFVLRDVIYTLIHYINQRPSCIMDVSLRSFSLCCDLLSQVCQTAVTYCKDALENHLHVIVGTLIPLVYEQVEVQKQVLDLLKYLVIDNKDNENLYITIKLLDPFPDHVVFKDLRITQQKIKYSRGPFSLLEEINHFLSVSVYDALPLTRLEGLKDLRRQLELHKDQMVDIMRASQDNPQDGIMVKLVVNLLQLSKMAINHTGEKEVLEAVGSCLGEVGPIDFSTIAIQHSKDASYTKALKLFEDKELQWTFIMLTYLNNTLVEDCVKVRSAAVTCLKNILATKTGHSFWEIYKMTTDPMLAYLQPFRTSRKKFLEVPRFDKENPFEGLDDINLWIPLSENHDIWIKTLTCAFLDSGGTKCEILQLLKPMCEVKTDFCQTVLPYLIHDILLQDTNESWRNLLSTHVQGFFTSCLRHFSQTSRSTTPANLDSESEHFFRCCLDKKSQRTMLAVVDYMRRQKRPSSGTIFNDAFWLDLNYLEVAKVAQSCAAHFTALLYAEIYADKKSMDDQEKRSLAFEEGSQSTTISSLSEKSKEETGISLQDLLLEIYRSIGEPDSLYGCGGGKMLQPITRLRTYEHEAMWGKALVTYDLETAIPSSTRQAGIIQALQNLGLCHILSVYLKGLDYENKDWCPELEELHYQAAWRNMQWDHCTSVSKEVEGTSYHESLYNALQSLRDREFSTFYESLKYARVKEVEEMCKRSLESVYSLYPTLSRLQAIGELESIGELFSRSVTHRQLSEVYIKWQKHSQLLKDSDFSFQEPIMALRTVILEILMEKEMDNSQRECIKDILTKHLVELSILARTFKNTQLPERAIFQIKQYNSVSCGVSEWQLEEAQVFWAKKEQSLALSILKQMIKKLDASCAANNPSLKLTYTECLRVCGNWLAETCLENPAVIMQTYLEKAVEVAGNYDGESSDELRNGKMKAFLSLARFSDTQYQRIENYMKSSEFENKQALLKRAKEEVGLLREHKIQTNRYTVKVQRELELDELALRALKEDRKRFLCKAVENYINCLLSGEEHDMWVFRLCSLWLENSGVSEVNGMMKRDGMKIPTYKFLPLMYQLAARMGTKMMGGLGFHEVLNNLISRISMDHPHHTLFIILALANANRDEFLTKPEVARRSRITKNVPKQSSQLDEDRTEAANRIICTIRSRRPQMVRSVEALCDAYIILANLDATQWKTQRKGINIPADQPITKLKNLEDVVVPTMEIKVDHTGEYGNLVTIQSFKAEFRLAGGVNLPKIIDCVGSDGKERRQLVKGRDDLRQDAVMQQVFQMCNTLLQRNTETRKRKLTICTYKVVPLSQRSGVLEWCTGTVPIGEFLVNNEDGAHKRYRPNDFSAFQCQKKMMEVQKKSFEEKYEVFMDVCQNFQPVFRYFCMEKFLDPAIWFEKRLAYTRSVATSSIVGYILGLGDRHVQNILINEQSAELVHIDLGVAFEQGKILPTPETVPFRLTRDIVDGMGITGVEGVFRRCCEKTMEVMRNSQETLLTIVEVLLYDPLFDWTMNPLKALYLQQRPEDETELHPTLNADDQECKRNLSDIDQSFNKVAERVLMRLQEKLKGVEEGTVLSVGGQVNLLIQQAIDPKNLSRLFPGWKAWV

SMILES	pIC50
Cc1cnc(C(CN(C)C)Nc2ccc3c(c2)Sc2cccc(-c4cc(N5CCOCC5)cc(=O)[nH]4)c2S3)cn1 (stereo not shown) [Example 1-32, 6-(7-((2-(dimethylamino)-1-(5-methylpyrazin-2-yl)ethyl)amino)thianthren-1-yl)-4-morpholinopyridin-2(1H)-one]	6.30 to 7.00
Cc1ccc(C(CO)Nc2ccc3c(c2)Sc2cccc(-c4cc(N5CCOCC5)cc(=O)[nH]4)c2S3)nc1 (stereo not shown) [Example 1-12-99, 6-(7-((2-Hydroxy-1-(5-methylpyridin-2-yl)ethyl)amino)thianthren-1-yl)-4-morpholino pyridin-2(1H)-one]	6.30 to 7.00
COc1ccc(CNc2ccc3c(c2)Cc2cccc(-c4cc(N5CCOCC5)cc(=O)[nH]4)c2O3)nc1 [Example 2-2-42, 6-(7-(((5-Methoxypyridin-2-yl)methyl)amino)-9H-xanthen-4-yl)-4-morpholino pyridin-2(1H)-one]	6.30 to 7.00
O=c1cc(N2CCOCC2)cc(-c2cccc3c2Sc2ccc(NC(CO)CN4CCCCC4)cc2S3)[nH]1 (stereo not shown) [Example 1-37-4, 6-(7-((1-Hydroxy-3-(piperidin-1-yl)propan-2-yl)amino)thianthren-1-yl)-4-morpholino pyridin-2(1H)-one]	6.30 to 7.00
COCCN1CCCC(Nc2ccc3c(c2)Sc2cccc(-c4cc(N5CCOCC5)cc(=O)[nH]4)c2S3)C1 (stereo not shown) [Example 1-26-2, 6-(7-((1-(2-Methoxyethyl)piperidin-3-yl)amino)thianthren-1-yl)-4-morpholinopyridin-2(1H)-one]	> 7.00
CCCC(Nc1ccc2c(c1)Sc1cccc(-c3cc(N4CCOCC4)cc(=O)[nH]3)c1S2)c1ccc(C)cn1 (stereo not shown) [Example 1-12-119, 6-(7-((1-(5-Methylpyridin-2-yl)butyl)amino)thianthren-1-yl)-4-morpholino pyridin-2 (1H)-one]	6.30 to 7.00
O=c1cc(N2CCOCC2)cc(-c2cccc3c2Sc2ccc(NC4CCCCC4N4CCOCC4)cc2S3)[nH]1 (stereo not shown) [Example 1-16-2, 4-Morpholino-6-(7-((2-morpholinocyclohexyl)amino)thianthren-1-yl)pyridin-2(1H)-one]	6.30 to 7.00
COc1cncc(C(C)Nc2ccc3c(c2)Sc2cccc(-c4cc(N5CCOCC5)cc(=O)[nH]4)c2S3)n1 (stereo not shown) [Example 1-12-78, 6-(7-((1-(6-Methoxypyrazin-2-yl)ethyl)amino)thianthren-1-yl)-4-morpholino pyridin-2 (1H)-one]	6.30 to 7.00
Cc1csc(CNc2ccc3c(c2)Cc2cccc(-c4cc(N5CCOCC5)cc(=O)[nH]4)c2O3)n1 [Example 2-14-42, 6-(7-(((4-Methylthiazol-2-yl)methyl)amino)-9H-xanthen-4-yl)-4-morpholino pyridin-2(1H)-one]	6.30 to 7.00
O=c1cc(N2CCOCC2)cc(-c2cccc3c2Sc2ccc(NC4CCCN(C5COC5)C4)cc2S3)[nH]1 (stereo not shown) [Example 1-24-6, 4-Morpholino-6-(7-((1-(oxetan-3-yl)piperidin-3-yl)amino)thianthren-1-yl) pyridin-2(1H)-one]	6.30 to 7.00
Cc1ccc(C(Nc2ccc3c(c2)Sc2cccc(-c4cc(N5CCOCC5)cc(=O)[nH]4)c2S3)C2CN(CCO)CCO2)nc1 (racemic) [Example 1-57-2, 6-(7-(((4-(2-Hydroxyethyl)morpholin-2-yl)(5-methylpyridin-2-yl)methyl)amino)thianthren-1-yl)-4-morpholinopyridin-2(1H)-one]	> 7.00
Cc1cccc(C(CCO)Nc2ccc3c(c2)Sc2cccc(-c4cc(N5CCOCC5)cc(=O)[nH]4)c2S3)n1 (stereo not shown) [Example 1-34-5, 6-(7-((3-Hydroxy-1-(6-methylpyridin-2-yl)propyl)amino)thianthren-1-yl)-4-morpholino pyridin-2(1H)-one]	6.30 to 7.00
CC(Nc1ccc2c(c1)Sc1cccc(-c3cc(N4CCOCC4)cc(=O)[nH]3)c1S2)c1nccc(CO)n1 (stereo not shown) [Example 1-12-86, 6-(7-((1-(4-(Hydroxymethyl)pyrimidin-2-yl)ethyl)amino)thianthren-1-yl)-4-morpholino pyridin-2(1H)-one]	6.30 to 7.00
O=c1cc(N2CCOCC2)cc(-c2cccc3c2Oc2ccc(NCc4ccc(CO)o4)cc2C3)[nH]1 [Example 2-13-3, 6-(7-(((5-(Hydroxymethyl)furan-2-yl)methyl)amino)-9H-xanthen-4-yl)-4-morpholino pyridin-2(1H)-one]	5.70 to 6.30
Cc1ccc(CNc2ccc3c(c2)Cc2cccc(-c4cc(N5CCOCC5)cc(=O)[nH]4)c2O3)cn1 [Example 2-2-2, 6-(7-(((6-Methylpyridin-3-yl)methyl)amino)-9H-xanthen-4-yl)-4-morpholino pyridin-2 (1H)-one]	> 7.00

The remaining lines, values ahead:

pIC50	SMILES
5.70 to 6.30	O=c1cc(N2CCOCC2)cc(-c2cccc3c2Oc2ccc(NC4CCN(CCCF)CC4)cc2C3)[nH]1 [Example 2-30-12, 6-(7-((1-(3-Fluoropropyl)piperidin-4-yl)amino)-9H-xanthen-4-yl)-4-morpholino pyridin-2(1H)-one]
6.30 to 7.00	O=c1cc(N2CCOCC2)cc(-c2cccc3c2Oc2ccc(NCCN4CCOCC4)cc2S3)[nH]1 [Example 4-11, 4-Morpholino-6-(8-((2-morpholinoethyl)amino)phenoxathiin-4-yl)pyridin-2(1H)-one]
6.30 to 7.00	O=c1cc(N2CCOCC2)cc(-c2cccc3c2Oc2ccc(NC4CCN(CCc5ccccc5)C4)cc2S3)[nH]1 (stereo not shown) [Example 4-6-1, 4-Morpholino-6-(8-((1-phenethylpyrrolidin-3-yl)amino)phenoxathiin-4-yl)pyridin-2(1H)-one]
6.30 to 7.00	CNc1ncccc1CNc1ccc2c(c1)Sc1cccc(-c3cc(N4CCOCC4)cc(=O)[nH]3)c1O2 [Example 4-8-21, 6-(8-(((2-(Methylamino)pyridin-3-yl)methyl)amino)phenoxathiin-4-yl)-4-morpholino pyridin-2(1H)-one]
6.30 to 7.00	Cc1ccnc(C(C)Nc2ccc3c(c2)Cc2ccnc(-c4cc(N5CCOCC5)cc(=O)[nH]4)c2O3)c1 (stereo not shown) [Example 2-42-5, 6-(7-((1-(4-Methylpyridin-2-yl)ethyl)amino)-5H-chromeno[2,3-c]pyridin-1-yl)-4-morpholinopyridin-2(1H)-one]
6.30 to 7.00	Cc1cc(CNc2ccc3c(c2)Cc2ccnc(-c4cc(N5CCOCC5)cc(=O)[nH]4)c2O3)ccn1 [Example 2-42-3, 6-(7-(((2-Methylpyridin-4-yl)methyl)amino)-5H-chromeno[2,3-c]pyridin-1-yl)-4-morpholinopyridin-2(1H)-one]
6.30 to 7.00	O=c1cc(N2CCOCC2)cc(-c2cccc3c2Oc2ccc(NC4CN(CCc5ccccc5)C4)cc2C3)[nH]1 [Example 2-19-6, 4-Morpholino-6-(7-((1-phenethylazetidin-3-yl)amino)-9H-xanthen-4-yl)pyridin-2(1H)-one]
6.30 to 7.00	CC(Nc1ccc2c(c1)Cc1cccc(-c3cc(N4CCOCC4)cc(=O)[nH]3)c1O2)c1cc(Cl)ncn1 (stereo not shown) [Example 2-14-59, 6-(7-((1-(6-Chloropyrimidin-4-yl)ethyl)amino)-9H-xanthen-4-yl)-4-morpholino pyridin-2(1H)-one]
5.70 to 6.30	CC(CN1CCOCC1)C(=O)Nc1ccc2c(c1)Sc1cccc(-c3cc(N4CCOCC4)cc(=O)[nH]3)c1S2 (stereo not shown) [Example 8-3, 2-Methyl-3-morpholino-N-(6-(4-morpholino-6-oxo-1,6-dihydropyridin-2-yl)thianthren-2-yl)propanamide]
6.30 to 7.00	Cc1cnc(CNc2ccc3c(c2)Cc2cccc(-c4cc(N5CCOCC5)cc(=O)[nH]4)c2O3)s1 [Example 2-14-47, 6-(7-(((5-Methylthiazol-2-yl)methyl)amino)-9H-xanthen-4-yl)-4-morpholino pyridin-2(1H)-one]
